# Experimental data published in patent US10604512B2, “3-(1H-indol-2-yl)-1H-indazoles and therapeutic uses thereof” (Samumed, LLC, priority 2015, dated 2020).
# Key:
# Format in all cases: cell-based
# SW480 colon cancer cells = assay: Cell viability assay (CellTiter-Blue) in SW480 colon cancer cells; conditions: Homo sapiens, 96 h, four days, CellTiter-Blue
# Experimental: Representative compounds were screened using the following assay procedure to assess the effect on cell viability as described below.
# Each compound was dissolved in DMSO as a 10 mM stock and used to prepare compound source plates. Serial dilution (1:3, 8-point dose-response curves from 10 μM to 0.0045 μM) and compound transfer was performed using the ECHO 550 (Labcyte, Sunnyvale, Calif.) into 96-well clear bottom, black-walled plates (Corning-Costar).
# Approximately 2×10^3 SW480 colon cancer cells were seeded into each well and allowed to incubate in the presence or absence of compound for four days at 37° C./5% CO2. Eight replicates of DMSO-treated cells served as controls and cells treated with compound were performed in duplicate.
# After incubation, 20 μL of CellTiter-Blue (Promega) was added to each well allowed to incubate for approximately 3 hours. This reagent was a buffered solution which contains resazurin, metabolically active cells were able to reduce rezarurin (blue) into resorufin (pink) which was highly fluorescent. This measured fluorescence was used as a readout for cell viability.
# After incubation, the plates were read at Ex 560 nm Em 590 nm (Cytation 3, BioTek). Dose-response curves were generated and EC50 concentration values were calculated using non-linear regression curve fit in the GraphPad Prism (San Diego, Calif.) or Dotmatics' Studies Software (Bishops Stortford, UK). For EC50 of >10 μM, the percent inhibition at 10 μM is provided.
# [1] = system: Wnt activity (Sp5-Luc reporter, TCF/LEF binding sites) in SW480 colon carcinoma cells; assay: Screening assay for Wnt activity: Sp5-Luc reporter gene assay in stably transduced SW480 colon carcinoma cells; conditions: Homo sapiens, overnight incubation, 10-point curve from 10 μM
# From the text: The screening assay for Wnt activity is described as follows. Reporter cell lines can be generated by stably transducing cancer cell lines (e.g., colon cancer) or primary cells (e.g., IEC-6 intestinal cells) with a lentiviral construct that includes a Wnt-responsive promoter driving expression of the firefly luciferase gene.
# SW480 colon carcinoma cells were transduced with a lentiviral vector expressing luciferase with a human Sp5 promoter consisting of a sequence of eight TCF/LEF binding sites. SW480 cells stably expressing the Sp5-Luc reporter gene and a hygromycin resistance gene were selected by treatment with 150 μg/mL of hygromycin for 7 days. These stably transduced SW480 cells were expanded in cell culture and used for all further screening activities. Each compound was dissolved in DMSO as a 10 mM stock and used to prepare compound source plates. Serial dilution (1:3, 10-point dose-response curves starting from 10 μM) and compound transfer was performed using the ECHO 550 (Labcyte, Sunnyvale, Calif.) into 384-well white solid bottom assay plates (Greiner Bio-One) with appropriate DMSO backfill for a final DMSO concentration of 0.1%. For Sp5-Luc reporter gene assays, the cells were plated at 4,000 cells/well in 384-well plates with medium containing 1% fetal bovine serum and incubated overnight at 37° C. and 5% CO2. Following incubation, 20 μl of BrightGlo luminescence reagent (Promega) was added to each well of the 384-well assay plates. The plates were placed on an orbital shaker for 2 min and then luminescence was quantified using the Envision (Perkin Elmer) plate reader. Readings were normalized to DMSO only treated cells, and normalized activities were utilized for EC50 calculations using the dose-response log (inhibitor) vs. response variable slope (four parameters) nonlinear regression feature available in GraphPad Prism 5.0 (or Dotmatics). For EC50 of >10 μM, the percent inhibition at 10 μM is provided.
# [2] = system: Primary human fibroblasts derived from IPF patients (LL29 cells) treated with TGF-β1; assay: Inhibition of the fibrotic process: αSMA staining in TGF-β1-treated primary human fibroblasts from IPF patients (LL29 cells); conditions: Fibroblast, 96 h, % αSMA-positive LL29 cells, TGF-β1 20 ng/mL, 4 days
# From the text: Representative compounds were screened using primary human fibroblasts (derived from IPF patients) treated with TGF-β1 to determine their ability to inhibit the fibrotic process.
# Primary human fibroblasts derived from IPF patients (LL29 cells) [^1Xiaoqiu Liu, et. al., “Fibrotic Lung Fibroblasts Show Blunted Inhibition by cAMP Due to Deficient cAMP Response Element-Binding Protein Phosphorylation”, Journal of Pharmacology and Experimental Therapeutics (2005), 315(2), 678-687; ^2Watts, K. L., et. al., “RhoA signaling modulates cyclin D1 expression in human lung fibroblasts; implications for idiopathic pulmonary fibrosis”, Respiratory Research (2006), 7(1), 88] were obtained from American Type Culture Collection (ATCC) and expanded in F12 medium supplemented with 15% Fetal Bovine Serum and Penicillin/Streptomycin.
# Each compound was dissolved in DMSO as a 10 mM stock and used to prepare compound source plates. Serial dilution (1:2, 11-point dose-response curves from 10 μM to […]) and compound transfer was performed using the ECHO 550 (Labcyte, Sunnyvale, Calif.) into 384-well clear bottom assay plates (Greiner Bio-One) with appropriate DMSO backfill for a final DMSO concentration of 0.1%. LL29 cells are plated at 1,500 cells/well in 80 μL/well F12 medium supplemented with 1% Fetal Bovine Serum. One hour after addition of the cells, TGF-β1 (Peprotech; 20 ng/mL) was added to the plates to induce fibrosis (ref 1 and 2 above). Wells treated with TGF-β1 and containing DMSO were used as controls. Cells were incubated at 37° C. and 5% CO2 for 4 days. Following incubation for 4 days, SYTOX green nucleic acid stain (Life Technologies [Thermo Fisher Scientific]) was added to the wells at a final concentration of 1 μM and incubated at room temperature for 30 min. Cells were then fixed using 4% formaldehyde (Electron Microscopy Sciences), washed 3 times with PBS followed by blocking and permeabilization using 3% Bovine Serum Albumin (BSA; Sigma) and 0.3% Triton X-100 (Sigma) in PBS. Cells were then stained with antibody specific to α-smooth muscle actin (αSMA; Abcam) (ref 1 and 2 above) in 3% Bovine Serum Albumin (BSA; Sigma) and 0.3% Triton X-100 (Sigma) in PBS, and incubated overnight at 4° C. Cells were then washed 3 times with PBS, followed by incubation with Alexa Flor-647 conjugated secondary antibody (Life Technologies [Thermo Fisher Scientific]) and DAPI at room temperature for 1 hour. Cells were then washed 3 times with PBS and plates were sealed for imaging. αSMA staining was imaged by excitation at 630 nm and emission at 665 nm and quantified using the Compartmental Analysis program on the CellInsight CX5 (Thermo Scientific). Dead or apoptotic cells were excluded from analysis based on positive SYTOX green staining. % of total cells positive for αSMA were counted in each well and normalized to the average of 11 wells treated with TGF-β1 on the same plate using Dotmatics' Studies Software. The normalized averages (fold change over untreated) of 3 replicate wells for each compound concentration were used to create dose-responses curves and EC50 values were calculated using non-linear regression curve fit in the Dotmatics' Studies Software. For EC50 of >10 μM, the percent inhibition at 10 μM is provided.
# IL-6 = assay: Inhibition of IL-6 in LPS-stimulated THP-1 human monocyte cells (HTRF); conditions: for EC50: IL-6 inhibition, LPS-stimulated THP-1 cells, HTRF
# Experimental: Human monocyte cell line (THP-1 cells; Catalog # TIB-202, ATCC, Manassas, Va.) were cultured in Roswell Park Memorial Institute (RPMI) 1640 Medium (Catalog #21870-100, Buffalo, N.Y.) with 1% L-glutamine, 1% HEPES, 1% Sodium Pyruvate, 2% Sodium Bicarbonate supplemented with 100 units/mL penicillin, 50 μg/mL streptomycin, 2-mercaptoethanol (0.05 mM) [basal medium] and 10% fetal bovine serum (Catalog #16140089, Life Technologies, Carlsbad, Calif.) at 37° C. and 5% CO2.
# THP-1 cells were cultured in basal media with 1% FBS for 24 hours before the start of the assay. Each compound was dissolved in DMSO as a 10 mM stock and used to prepare compound source plates. Serial dilution (1:3, 10-point dose-response curves starting from 10 μM) and compound transfer was performed using the ECHO 550 (Labcyte, Sunnyvale, Calif.) into 384-well white low volume assay plates (Greiner Bio-One) with appropriate DMSO backfill for a final DMSO concentration of 0.1%. THP-1 cells were plated at 5000 cells/well in the 384-well plates and incubated at 37° C. for 2 h. 500 ng/mL of LPS was added after 2 hours and cells were incubated for another 22 hours at 37° C. Plates were spun in a centrifuge for 1 minute at […] and a mixture of anti-IL6 XL665, and anti-IL6 Cryptate diluted in reconstitution buffer (Cisbio Inc.) was added to each well. Following incubation for 3 hrs at room temperature, Homogeneous Time-Resolved Fluorescence (HTRF) was measured using the Envision (Perkin Elmer) at 665 nm and […]. The ratio of fluorescence at 665 nm to 620 nm was used as a readout for IL6 quantification. All samples were processed in duplicate. Readings were normalized to DMSO treated cells and normalized activities were utilized for EC50 calculations using the dose-response log (inhibitor) vs. response variable slope (four parameters) nonlinear regression feature available in GraphPad Prism 5.0 (or Dotmatics). For EC50 of >10 μM, the percent inhibition at 10 μM is provided.
EC50 (SW480 colon cancer cells) [nM],EC50 [1] [nM],EC50 (IL-6) [nM],Structure (SMILES),EC50 [2] [nM],"inhibition at 10 µM (IL-6; THP-1, printed beside >10 μM EC50, top concentration 10 μM, meaning not given, read-out: percentage in parentheses after EC50 >10) [%]"
563,300,834,"Cc1ccncc1-c1ccc2[nH]nc(-c3cc4c(-c5cccc(F)c5)cccc4[nH]3)c2c1 [Compound 5, 3-(4-(3-Fluorophenyl)-1H-indol-2-yl)-5-(4-methylpyridin-3-yl)-1H-indazole]",737,
4090,495,1220,"Fc1cccc(-c2cccc3[nH]c(-c4n[nH]c5ccc(-c6cncc(CN7CCC(F)(F)C7)c6)cc45)cc23)c1 [Compound 26, 5-(5-((3,3-diFluoropyrrolidin-1-yl)methyl)pyridin-3-yl)-3-(4-(3-fluorophenyl)-1H-indol-2-yl)-1H-indazole]",815,
2600,190,35,"O=C(Nc1cncc(-c2ccc3[nH]nc(-c4cc5c(-c6ccc(F)cc6)cccc5[nH]4)c3c2)c1)C1CCC1 [Compound 49, N-(5-(3-(4-(4-Fluorophenyl)-1H-indol-2-yl)-1H-indazol-5-yl)pyridin-3-yl) cyclobutanecarboxamide]",778,
981,1160,105,"CC(C)C(=O)Nc1cncc(-c2ccc3[nH]nc(-c4cc5c(-c6ccccc6F)cccc5[nH]4)c3c2)c1 [Compound 65, N-(5-(3-(4-(2-Fluorophenyl)-1H-indol-2-yl)-1H-indazol-5-yl)pyridin-3-yl) isobutyramide]",305,
2170,1160,3110,"Fc1ccccc1-c1cccc2[nH]c(-c3n[nH]c4ccc(-c5cncc(CN6CCCCC6)c5)cc34)cc12 [Compound 71, 3-(4-(2-Fluorophenyl)-1H-indol-2-yl)-5-(5-(piperidin-1-ylmethyl)pyridin-3-yl)-1H-indazole]",2550,
4800,1960,1000,"CCCCC(=O)Nc1cncc(-c2ccc3[nH]nc(-c4cc5c(-c6ccccc6F)cccc5[nH]4)c3c2)c1 [Compound 75, N-(5-(3-(4-(2-Fluorophenyl)-1H-indol-2-yl)-1H-indazol-5-yl)pyridin-3-yl) pentanamide]",1980,
5240,2980,4300,"Fc1ccccc1-c1cccc2[nH]c(-c3n[nH]c4ccc(-c5cncc(CN6CCC(F)(F)C6)c5)cc34)cc12 [Compound 82, 5-(5-((3,3-Difluoropyrrolidin-1-yl)methyl)pyridin-3-yl)-3-(4-(2-fluorophenyl)-1H-indol-2-yl)-1H-indazole]",2260,
4200,2880,2380,"Fc1ccccc1-c1cccc2[nH]c(-c3n[nH]c4ccc(-c5ccccn5)cc34)cc12 [Compound 84, 3-(4-(2-Fluorophenyl)-1H-indol-2-yl)-5-(pyridin-2-yl)-1H-indazole]",6740,
1320,140,153,"CC(C)(C)C(=O)Nc1cncc(-c2ccc3[nH]nc(-c4cc5c(-c6cccnc6)cccc5[nH]4)c3c2)c1 [Compound 92, N-(5-(3-(4-(Pyridin-3-yl)-1H-indol-2-yl)-1H-indazol-5-yl)pyridin-3-yl) pivalamide]",612,
1140,100,163,"CC(C)Nc1cncc(-c2ccc3[nH]nc(-c4cc5c(-c6cccnc6)cccc5[nH]4)c3c2)c1 [Compound 96, N-Isopropyl-5-(3-(4-(pyridin-3-yl)-1H-indol-2-yl)-1H-indazol-5-yl)pyridin-3-amine]",162,
1100,250,> 10000,"COc1cncc(-c2ccc3[nH]nc(-c4cc5c(-c6ccc(C)s6)cccc5[nH]4)c3c2)c1 [Compound 768, 5-(5-Methoxypyridin-3-yl)-3-(4-(5-methylthiophen-2-yl)-1H-indol-2-yl)-1H-indazole]",,49.8
